Values of other authors, collected in patent US20230175068A1, “PROGNOSIS METHOD OF ACUTE MYELOID LEUKAEMIA” (CENTRE NATIONAL DE LA RECHERCHE SCIENTIFIQUE, priority 2020, published 2023).
Read-outs that look alike come from different tables or passages of the source.

Test system: AML cell lines

SMILES | T-Statistic (Drug sensitivity AUC (Sanger GDSC1)) | T-Statistic (Drug sensitivity AUC (Sanger GDSC2))
O=C(c1cc(Cc2n[nH]c(=O)c3ccccc23)ccc1F)N1CCN(C(=O)C2CC2)CC1 [Olaparib] | -3.795 | 
O=C1NC(=O)c2c1c(-c1ccccc1Cl)cc1[nH]c3ccc(O)cc3c21 [Wee1 Inhibitor] |  | -4.966
